Key:
[1] = test system: MEFs; assay: Ferroptosis and lipid ROS in MEFs; type: cell-based, mouse; conditions: Ferrostatin-1 2 μM; cystine starvation, erastin or RSL3
Method: (§1) Measurement of cell death, cell viability and lipid peroxidation. Cell death was analyzed by propidium iodide (Invitrogen, Waltham, Mass., USA) or SYTOX Green (Invitrogen) staining followed by microscopy or flow cytometry. For 3D spheroids, cell viability was determined using the CellTiter-Glo® 3D Cell Viability Assay (Promega, Madison, Wis., USA) according to the manufacturer's instructions. Viability was calculated by normalizing ATP levels to spheroids treated with normal full media. To analyze lipid peroxidation, cells were stained with 5 μM BODIPY-C11 (Invitrogen) for 30 minutes at 37° C. followed by flow cytometric analysis.
Merlin-regulated ferroptosis in cell density dependent manner was also observed in MEFs, which are not of epithelial origin. Cell death of MEFs with different cell density induced by cystine starvation for 12 h was measured by PI staining (FIG. 15A), and flow cytometry (FIG. 15B). The effect of cystine starvation on lipid ROS production in MEFs cells with different cell density (6 h treatment) is also shown in FIG. 15B. […] As shown in FIGS. 15A-15D, increased cell density mitigated both cell death and lipid ROS generation induced by cystine starvation, erastin and RSL3 in MEFs.
MEFs also regulated the activity of YAP at high density in a Merlin-dependent manner. MEFs seeded at increasing density were probed for YAP localization by Immunofluorescence (FIG. 15E). The effect of Merlin was assessed by infecting MEFs with shMerlin lentivirus and selected with puromycin. […] As shown in FIGS. 15E-15F, with increasing cell confluence, there was an increase of YAP nuclear exclusion in MEFs, which was attenuated by Merlin knockdown.

[2] = test system: HCT116 cells; assay: Cell death inhibitors in sparse HCT116 cells under cystine starvation or RSL3; type: cell-based, human; conditions: 5×10^4 cells/well; for inhibition of RSL3-induced cell death: 5 μM RSL3 24 h, with cell death inhibitors; for inhibition of cystine starvation-induced cell death: cystine-free media 30 h, Fer-1 1 μM, DFO 50 μg/mL, Z-VAD-FMK 20 μM, GSK'872 10 μM
Method: as §1
To confirm that sparse HCT116 cells were dying from ferroptosis but not another cell death modality, various cell death inhibitors were tested: ferrostatin-1 (Fer-1) and DFO, which inhibit ferroptosis, Z-VAD-FMK, a pan-caspase inhibitor, and GSK'872, a selective RIPK3 inhibitor that blocks necroptosis. HCT116 cells were seeded at a density of 5×10^4 cells/well and grown for 24 hours. Cells were washed in PBS and cultured in cystine-free media with the indicated treatments for 30 h. Fer-1: Ferrostatin-1, 1 μM; DFO: iron chelator, 50 μg/mL; Z-VAD-FMK: pan-caspase inhibitor, 20 μM; GSK'872: RIPK3 inhibitor, 10 μM. HCT116 cells were seeded at a density of 5×10^4 cells/well and grown for 24 hours, then treated with 5 μM RSL3 and the indicated cell death inhibitors for 24 hours before measuring cell death. These experiments confirmed that cells underwent ferroptosis, instead of other modes of cell death, under these conditions (FIGS. 6C-6D). Similar cell density-dependent ferroptosis was previously observed by Seiler et al., Cell Metab. 8: 237-248 (2008) and Schneider et al., Neoplasia 12:254-263 (2010). In Seiler et al., mouse embryonic fibroblasts (MEFs) harboring two floxed GPX4 alleles survived and grew when seeded at high density, but upon passage at lower density they died rapidly. In Schneider et al., GPX4-deficient MEFs formed 3D tumor spheroids as well as wild-type MEFs by an unknown mechanism.

[3] = test system: HCT116 cells; assay: Ferroptosis in confluent HCT116 cells expressing shEcad, shMerlin or shLats1/2; type: cell-based, human; conditions: cystine starvation or RSL3 plus
Method: as §1
The involvement of the Hippo signaling in the regulation of ferroptosis by cell-cell contact was also assessed. Cells depleted of Ecad, Merlin, or Lats were generated using shRNA technology. HCT116 cells were infected by lentiviruses expressing shRNA sequences targeting Ecad (shEcad), Merlin (shMerlin), or Lats1/2 (shLats1/2), as indicated. Knockdown efficiency was confirmed by Western blot (FIG. 2B). […] Cell death was measured at 30 h using SYTOX Green staining followed by flow cytometry. Lipid ROS was measured at 24 hours using C11-BODIPY staining coupled with flow cytometry. […] Cell death was measured at 18 h and lipid ROS was measured at 14 h (FIG. 11A).

[4] = test system: HCT116 cells; assay: Ferroptosis in HCT116 cells expressing PAK-CAAX; type: cell-based, human
[5] = test system: MSTO-211H cells; assay: Ferroptosis in confluent MSTO-211H cells (shMerlin, shNcad); type: cell-based, human
Method: as §1
To confirm the ferroptosis-regulating role of Merlin in mesothelioma cells, the effect of Merlin knockdown on ferroptosis sensitivity was assessed. MSTO-211H cells were infected with lentiviruses expressing shMerlin. RNAi knockdown efficiency was confirmed by Western blot (FIG. 3F). Then, shNT or shMerlin MSTO-211H cells were cultured to high confluence, at which point they were treated with media containing or lacking cystine, with or without Fer-1 for 24 h. Cell death was measured by SYTOX Green staining followed by flow cytometry (FIG. 3G). To measure lipid reactive species, shNT or shMerlin MSTO-211H cells were treated for 18 h, at which point they were stained with 2 μM C11-BODIPY for lipid ROS measurement (FIG. 311). Confluent MSTO-211H cells expressing shNT or shMerlin were also treated with 1 μM RSL3 with or without […] Fer-1. Cell death (left, 24 h after treatment) and lipid ROS production (right, 16 h) were measured (FIG. 13B).
Therefore, the cell density dependence of ferroptosis is not limited to epithelial cells expressing Ecad. […] To assess the expression of N-cadherin in MSTO-211H mesothelioma cells, the cells were cultivated at different cell densities, and the levels of Ncad, p-YAP and total YAP were analyzed by Western blot. […] Therefore, the potential role of Ncad in ferroptosis was tested. MSTO-211H cells were infected with lentiviruses expressing Ncad shRNA (shNcad) and selected with puromycin.

[6] = test system: tumor spheroids of HCT116 cells; assay: Erastin-induced cell death in HCT116 tumor spheroids; type: cell-based, human; conditions: 15 μM erastin with 2 μM Fer-1, 30 h
Method: Generation of three-dimensional spheroids. Spheroids were generated by plating tumor cells at 10^3/well into U-bottom Ultra Low Adherence (ULA) 96-well plates (Corning, Tewksbury, Mass., USA). Optimal three-dimensional structures were achieved by centrifugation at 600 g for 5 min followed by addition of 2.5% Matrigel (Corning). Plates were incubated for 72 h at 37° C., 5% CO2, 95% humidity for formation of a single spheroid of cells. Spheroids were then treated with erastin in fresh medium containing Matrigel for the indicated time.
as §1, with “To analyze lipid peroxidation, cells were stained with 5 μM BODIPY-C11 (Invitrogen) for 30 minutes at 37° C. followed by flow cytometric analysis.” left out
Tumor spheroids generated from shEcad, shMerlin and shLats1/2 cells were treated with 15 μM erastin with or without 2 μM Fer-1 for 30 h, and dead cells were stained green by SYTOX Green. Cell viability within the tumor spheroids was measured by determining ATP levels. […]

[7] = test system: HCT116-derived xenograft tumors; assay: shLats1/2 HCT116 subcutaneous xenograft treated with IKE; type: in vivo, nude mice
Method: For shLats1/2 s.c. tumor models, female athymic nu/nu mice aged 6 to 8 weeks were injected in the right flank with 2×10^6 shNT HCT116 cells or shLats1/2 HCT116 cells. Tumors were measured with calipers every day. When tumors reached a mean volume of 90 mm^3, mice were randomized into four groups and treated with vehicle (65% D5W (5% dextrose in water), 5% Tween-80, 30% PEG-400) or 50 mg/kg IKE (65% D5W (5% dextrose in water), 5% Tween-80, 30% PEG-400) via IP injection once a day. At the end of the study, mice were euthanized with CO2 and tumors were taken for measurement of weight.
To determine whether Lats1/2, the kinases that directly phosphorylate and inactivate YAP, can have similar effects in vivo as Merlin, subcutaneous xenograft tumors were formed from HCT116 cells harboring hairpins targeting Lats1/2. In particular, HCT116 cells containing non-targeting hairpins or hairpins targeting both Lats1 and 2 were injected subcutaneously into nude mice (n=6 per group). Tumors were grown to a volume of 90 mm^3, at which point they were injected […] with 50 mg/kg imidazole ketone erastin (IKE) once a day for 12 days. Tumor volume was measured daily by caliper. Images of resected tumors and their masses were also quantified (FIGS. 19B-19C). Imidazole ketone erastin (IKE) is an erastin analog that is amenable for in vivo use because of the increased solubility and stability.

[8] = test system: malignant mesothelioma; conditions: clinical trials; cited from earlier work
[9] = test system: HCT116 cells; assay: Sorafenib-induced ferroptosis; type: cell-based, human; conditions: 10 μM sorafenib
Method: (§2) The effect of sorafenib on cell density-dependent ferroptosis was determined. First, HCT116 cells were seeded at a density of 0.5×10^5 cells/3.5 cm2 well (sparse) or 4×10^5 cells/3.5 cm2 well (confluent) and grown for 24 h. Cells were then treated with DMSO, 10 μM sorafenib, or 10 μM sorafenib and 2 μM Fer-1 as indicated. […] Second, ΔEcad or the parental HCT116 cells were seeded at 4×10^5 cells/3.5 cm2 well and grown for 24 h. Cells were then treated with 10 μM sorafenib and 2 μM Fer-1 as indicated. Third, HCT116 shNT or shMerlin cells, MSTO-211H shNT or shMerlin cells, HCT116 cells expressing YAP^S127A or the parental cells, MSTO-211H cells expressing YAP^S127A or the parental cells, and HCT116 shNT or shLats1/2 cells were seeded at high density and treated with 10 μM sorafenib and 2 μM Fer-1 as indicated.

[10] = test system: 211H mesothelioma cells; assay: Sorafenib-induced ferroptosis; type: cell-based, human; conditions: 10 μM sorafenib
Method: as §2

[11] = test system: HCT116 cells; assay: Verteporfin and cystine starvation-induced ferroptosis; type: cell-based, human; conditions: verteporfin 0.5 μM
Method: (§3) To further confirm this conclusion, a pharmacological analysis was performed. As a transcriptional coactivator, YAP regulates the expression of multiple target genes through its interaction with the TEAD family of transcriptional factors. Verteporfin (VP), a pharmacological agent that can inhibit the interaction of YAP with the TEAD family members was used to determine the effect of Merlin on ferroptosis. […] YAP^S127A-expressing cells were also treated with verteporfin (0.5 μM) after 24 h of cystine starvation in shMerlin HCT116 or 211H cells.

[12] = test system: 211H cells; assay: as above; type: cell-based, human; conditions: verteporfin 0.5 μM
Method: as §3

CCOC(=O)c1ccc(NC2CCCCC2)c(N)c1 [Fer-1, Ferrostatin-1]
block of cell death and lipid ROS in confluent Merlin RNAi MEFs [1]: blocked
inhibition of RSL3-induced cell death [2]: inhibited
inhibition of cystine starvation-induced cell death [2]: inhibited
block of cell death by Fer-1, confluent knockdown cells [3]: blocked cell death
inhibition of RSL3-induced ferroptosis in PAK-CAAX cells by Fer-1 [4]: inhibited
inhibition of cystine deprivation-induced ferroptosis in PAK-CAAX cells by Fer-1 [4]: inhibited
block of RSL3-induced ferroptosis and lipid ROS in shMerlin cells by Fer-1 ([5]; 1 μM RSL3 with 204 Fer-1): blocked
block of lipid ROS production in cystine-deprived shMerlin cells by Fer-1 ([5]; high confluence, 18 h): blocked
block of cystine deprivation-induced ferroptosis in shMerlin cells by Fer-1 ([5]; high confluence, cystine-free 24 h): blocked
block of erastin-induced cell death in spheroids by Fer-1 [6]: blocked cell death

CC(C)Oc1ccc(C(=O)Cn2ccnc2)cc1-n1c(CN2CCN(C(=O)COc3ccc(Cl)cc3)CC2)nc2ccccc2c1=O [IKE, imidazole ketone erastin]
mass of resected xenograft tumors ([7]; Lats1/2 depleted HCT116 tumors, 50 mg/kg IKE once a day): reduced
xenograft tumor growth (volume) ([7]; shLats1/2 HCT116 tumors, 50 mg/kg IKE once a day for 12 days): grew slowly or receded

CNC(=O)c1cc(Oc2ccc(NC(=O)Nc3ccc(Cl)c(C(F)(F)F)c3)cc2)ccn1 [sorafenib]
clinical outcome in malignant mesothelioma [8]: can stabilize, but not necessarily treat mesothelioma
sorafenib-induced ferroptosis at high cell density after loss of Ecad, Lats1/2, inhibition of Merlin or activation of YAP [9]: sensitize these cells to sorafenib-induced ferroptosis at high cell density
sorafenib-induced ferroptosis, sparse versus confluent cells [9]: could induce cell density-dependent ferroptosis
sorafenib-induced ferroptosis at high cell density after inhibition of Merlin or activation of YAP [10]: sensitize these cells to sorafenib-induced ferroptosis at high cell density

CC(=O)N(O)CCCCCNC(=O)CCC(=O)N(O)CCCCCNC(=O)CCC(=O)N(O)CCCCCN [DFO]
inhibition of RSL3-induced cell death [2]: inhibited
inhibition of cystine starvation-induced cell death [2]: inhibited

Verteporfin
effect of Merlin knockdown and YAP^S127A overexpression on cystine starvation-induced ferroptosis ([11]; high density): ablated the effect of Merlin knockdown and YAP^S127A overexpression
sensitivity of shMerlin cells to cystine starvation-induced ferroptosis ([11]; 24 h cystine starvation): reduced cells sensitivity to ferroptosis
effect of Merlin knockdown and YAP^S127A overexpression on cystine starvation-induced ferroptosis ([12]; high density): ablated the effect of Merlin knockdown and YAP^S127A overexpression
sensitivity of shMerlin cells to cystine starvation-induced ferroptosis ([12]; 24 h cystine starvation): reduced cells sensitivity to ferroptosis
